According to the supplement of paper PMC10307832:

What was measured:
Assay in all cases: relative viability (nuclei count vs DMSO), 5 days (fraction); higher = more cells survive
[1] = compound: Cc1ccc2nc(NCCN)c3ncc(C)n3c2c1 + CCNC(=O)c1noc(-c2cc(C(C)C)c(O)cc2O)c1-c1ccc(CN2CCOCC2)cc1 [Luminespib] (partner 0.01 µM)
Method in brief: (§1)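 Nuclei were stained with Hoechst during a one-step fixation (final 0.05% Triton X-100, 1% formaldehyde, 1 ug/ml Hoechst) carried out 5 days after dosing, then counted on 4× images. The cells, lung cancer lines in 1536-well plates, had been dosed by pin tool the day after seeding with one drug alone or a fixed anchor-drug dose plus five library-drug doses (not always all listed) in √10 steps. Relative viability is the nuclei count in treated wells divided by that in vehicle wells, and each value is the median of duplicate plates.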

[2] = compound: Cc1ccc2nc(NCCN)c3ncc(C)n3c2c1 + O=C(c1cc(Cc2n[nH]c(=O)c3ccccc23)ccc1F)N1CCN(C(=O)C2CC2)CC1 [Olaparib] (partner 8 µM)
Method in brief: as §1

[3] = compound: O=C(/C=C/c1ccccc1)NC(NC(=S)Nc1cccc2cccnc12)C(Cl)(Cl)Cl [Salubrinal] + CS(=O)(=O)N1CCN(Cc2cc3nc(-c4cccc5[nH]ncc45)nc(N4CCOCC4)c3s2)CC1 [Pictilisib] (partner 1 µM)
Method in brief: as §1

[4] = compound: O=C(/C=C/c1ccccc1)NC(NC(=S)Nc1cccc2cccnc12)C(Cl)(Cl)Cl [Salubrinal] + NC(=O)Nc1cc(-c2cccc(F)c2)sc1C(=O)N[C@H]1CCCNC1 [AZD7762] (partner 0.2 µM)
Method in brief: as §1

Cell Line | relative viability ([1]; first compound 0.04 µM) | relative viability ([1]; first compound 0.1265 µM) | relative viability ([1]; first compound 0.4 µM) | relative viability ([1]; first compound 1.265 µM) | relative viability ([1]; first compound 4 µM) | relative viability ([2]; first compound 0.04 µM) | relative viability ([2]; first compound 0.1265 µM) | relative viability ([2]; first compound 0.4 µM) | relative viability ([2]; first compound 1.265 µM) | relative viability ([2]; first compound 4 µM) | relative viability ([3]; first compound 0.08 µM) | relative viability ([3]; first compound 0.253 µM) | relative viability ([3]; first compound 0.8 µM) | relative viability ([3]; first compound 2.53 µM) | relative viability ([3]; first compound 8 µM) | relative viability ([4]; first compound 0.08 µM) | relative viability ([4]; first compound 0.253 µM) | relative viability ([4]; first compound 0.8 µM) | relative viability ([4]; first compound 2.53 µM) | relative viability ([4]; first compound 8 µM)
NCI-H1975 | 0.224 | 0.243 | 0.326 | 0.116 | 0.153 | 0.791 | 0.81 | 0.809 | 0.704 | 0.682 | 0.259 | 0.269 | 0.338 | 0.269 | 0.278 | 0.691 | 0.611 | 0.853 | 0.744 | 0.601
CAL-12T | 0.642 | 0.522 | 0.715 | 0.534 | 0.214 | 0.77 | 0.738 | 0.827 | 0.804 | 0.625 | 0.392 | 0.488 | 0.438 | 0.734 | 0.528 | 0.625 | 0.657 | 0.741 | 0.577 | 0.619
NCI-H2342 | 0.797 | 0.638 | 0.616 | 0.719 | 0.677 | 0.593 | 0.439 | 0.453 | 0.411 | 0.503 |  |  |  |  |  | 0.445 | 0.503 | 0.552 | 0.517 | 0.552
HCC-44 | 1.07 | 1.04 | 1.06 | 1.05 | 0.591 | 0.999 | 0.96 | 0.955 | 1 | 0.977 | 0.592 | 0.591 | 0.767 | 0.649 | 0.493 | 1.02 | 1.01 | 1.02 | 1 | 0.977
EKVX | 0.955 | 0.842 | 0.886 | 0.843 | 0.93 | 0.941 | 0.82 | 0.775 | 0.706 | 0.737 | 0.508 | 0.494 | 0.525 | 0.461 | 0.482 | 0.78 | 0.591 | 0.999 | 0.721 | 0.757
NCI-H1651 | 0.801 | 0.805 | 0.997 | 0.836 | 0.839 | 0.178 | 0.181 | 0.179 | 0.18 | 0.175 | 0.822 | 0.486 | 0.667 |  | 0.423 | 0.464 | 0.423 | 0.546 | 0.484 | 0.388
NCI-H1648 |  |  |  |  |  | 1.08 | 0.846 | 0.789 | 0.843 | 0.666 |  |  |  |  |  | 0.733 | 0.62 | 0.705 | 0.654 | 0.575
NCI-H1703 |  |  |  |  |  | 0.393 | 0.362 | 0.619 | 0.47 | 0.437 | 0.216 | 0.246 | 0.238 | 0.259 | 0.264 | 0.124 | 0.11 | 0.139 | 0.123 | 0.122
Calu-6 |  |  |  |  |  | 0.574 | 0.601 | 0.6 | 0.578 | 0.367 | 1.11 | 0.817 | 0.925 | 0.871 | 0.792 |  |  |  |  | 
EBC-1 |  |  |  |  |  | 0.679 | 0.681 | 0.72 | 0.602 | 0.546 | 0.332 | 0.373 | 0.4 | 0.273 | 0.248 |  |  |  |  | 
SW 1573 | 0.287 | 0.185 | 0.204 | 0.151 | 0.106 | 0.519 | 0.404 | 0.504 | 0.42 | 0.177 | 0.539 | 0.406 | 0.537 | 0.465 | 0.471 |  |  |  |  | 
A-427 | 1.1 | 0.784 | 0.993 | 1.02 | 0.846 | 0.723 | 0.672 | 0.693 | 0.711 | 0.63 | 0.805 | 0.748 | 0.853 | 0.785 | 0.759 | 0.892 | 0.716 | 0.755 | 0.802 | 0.67
NCI-H2347 | 1.14 | 1.3 | 0.362 | 0.248 | 0.356 | 0.601 | 0.566 | 0.485 | 0.525 | 0.501 | 0.805 | 0.517 | 0.905 | 0.678 | 0.434 | 0.537 | 0.82 | 0.919 | 0.749 | 0.744
NCI-H1355 | 0.844 | 0.73 | 0.722 | 0.691 | 0.732 | 0.79 | 0.72 | 0.754 | 0.764 | 0.659 | 0.366 | 0.433 | 0.45 | 0.426 | 0.425 | 0.788 | 0.711 | 0.821 | 0.691 | 0.691
NCI-H1944 | 0.735 | 0.735 | 0.663 | 0.817 | 0.844 | 0.388 | 0.387 | 0.403 | 0.397 | 0.388 | 0.349 | 0.328 | 0.362 | 0.348 | 0.307 | 0.563 | 0.471 | 0.472 | 0.433 | 0.596
PC-3 [JPC-3] | 0.733 | 0.71 | 0.672 | 0.671 | 0.628 | 1.23 | 1.09 | 1.13 | 1.11 | 1.02 | 0.796 | 0.666 | 0.714 | 0.727 | 0.702 | 0.833 | 0.67 | 0.923 | 0.928 | 0.671
NCI-H2228 | 0.147 | 0.149 | 0.181 | 0.145 | 0.149 | 0.721 | 0.692 | 0.614 | 0.65 | 0.633 | 0.472 | 0.356 | 0.31 | 0.543 | 0.321 |  |  |  |  | 
HOP-62 | 0.916 | 0.941 | 0.648 | 0.965 | 0.913 | 0.286 | 0.457 | 0.436 | 0.417 | 0.42 | 0.509 | 0.468 | 0.681 | 0.505 | 0.691 | 0.589 | 0.468 | 0.958 | 0.689 | 0.441
HARA | 0.822 | 0.753 | 0.622 | 0.681 | 0.681 | 0.73 | 0.782 | 0.791 | 0.759 | 0.365 | 0.524 | 0.328 | 0.558 | 0.328 | 0.375 | 0.374 | 0.254 | 0.25 | 0.437 | 0.196
